Test results as given in patent US12480137B2, “Plants having increased tolerance to herbicides” (BASF SE, priority 2014, dated 2025).

What was measured:
Assay type in all cases: in vivo, Arabidopsis thaliana
[1] = system: A. thaliana WT L. erecta; assay: Greenhouse phytotox, pre-emergent treatment
Description: (§1) Additionally, M2 or M3 Arabidopsis plants are tested for improved tolerance to cellulose biosynthesis-inhibiting herbicides in greenhouse studies (e. g. with the following cellulose biosynthesis-inhibiting herbicides: 6-cyclopentyl-N4-(2,3,4,5,6-pentafluorophenyl)-1,3,5-triazine-2,4-diamine; 6-(1-fluoro-1-methyl-ethyl)-N4-(2,3,4,5,6-pentafluorophenyl)-1,3,5-triazine-2,4-diamine; N4-(4-chloro-3,5,6-trifluoro-2-pyridyl)-6-(1-fluoro-1-methyl-ethyl)-1,3,5-triazine-2,4-diamine; 6-(2,6-difluorophenyl)-N4-(2,3,5,6-tetrafluorophenyl)-1,3,5-triazine-2,4-diamine; N4-(4-bromo-2,3,5,6-tetrafluoro-phenyl)-6-(1-fluoro-1-methyl-ethyl)-1,3,5-triazine-2,4-diamine.

[2] = system: Cesa1_G1009D, fpx2-3 mutant line; assay: Greenhouse phytotox, pre-emergent treatment
Description: as §1

[3] = system: Cesa1_G1013R, fpx2-1 mutant line; assay: Greenhouse phytotox, pre-emergent treatment
Description: as §1

[4] = system: Cesa1_P1010L, fpx2-2 mutant line; assay: Greenhouse phytotox, pre-emergent treatment
Description: as §1

[5] = system: Cesa3_S1037F, fpx1-2 mutant line; assay: Greenhouse phytotox, pre-emergent treatment
Description: as §1

[6] = system: Cesa3_S1040L, fpx1-1 mutant line; assay: Greenhouse phytotox, pre-emergent treatment
Description: as §1

[7] = system: Cesa3_S983F, fpx1-3 mutant line; assay: Greenhouse phytotox, pre-emergent treatment
Description: as §1

[8] = system: A. thaliana WT L. erecta; assay: Greenhouse phytotox, post-emergent treatment 6 weeks after sowing
Description: as §1

[9] = system: Cesa1_G1009D, fpx2-3 mutant line; assay: as above
Description: as §1

[10] = system: Cesa1_G1013R, fpx2-1 mutant line; assay: as above
Description: as §1

[11] = system: Cesa1_P1010L, fpx2-2 mutant line; assay: as above
Description: as §1

[12] = system: Cesa3_S1037F, fpx1-2 mutant line; assay: as above
Description: as §1

[13] = system: Cesa3_S1040L, fpx1-1 mutant line; assay: as above
Description: as §1

[14] = system: Cesa3_S983F, fpx1-3 mutant line; assay: as above
Description: as §1

[15] = system: transgenic Arabidopsis plants, construct AtCESA1 wt; assay: Growth inhibition of transgenic Arabidopsis in 48-well plates, tolerance factor from IC50; conditions: SEQ ID NO 1, growth inhibition seven to ten days after seeding
Description: (§2) For transformation of Arabidopsis thaliana, wildtype or mutated cellulose synthase sequences based on one of the following sequences SEQ ID NO: 72, 73, 74, 75, 76, or 77, are cloned with standard cloning techniques as described in Sambrook et al. (Molecular cloning (2001) Cold Spring Harbor Laboratory Press) in a binary vector containing resistance marker gene cassette (AHAS) and mutated cellulose synthase sequence (marked as GOI) in between ubiquitin promoter (PcUbi) and nopaline synthase terminator (NOS) sequence. Binary plasmids are introduced to Agrobacterium tumefaciens for plant transformation. Arabidopsis thaliana are transformed with wildtype or mutated cellulose synthase sequences by floral dip method as decribed by McElver and Singh (WO 2008/124495). Transgenic Arabidopsis plants are subjected to TaqMan analysis for analysis of the number of integration loci.
(§3) Transgenic Arabidopsis thaliana plants are assayed for improved tolerance to azine herbicides like e. g. 6-cyclopentyl-N4-(2,3,4,5,6-pentafluorophenyl)-1,3,5-triazine-2,4-diamine in 48-well plates. Therefore, T2 seeds are surface sterilized by stirring for 5 min in ethanol+water (70+30 by volume), rinsing one time with ethanol+water (70+30 by volume) and two times with sterile, deionized water. The seeds are resuspended in 0.1% agar dissolved in water (w/v) Four to five seeds per well are plated on solid nutrient medium consisting of half-strength murashige skoog nutrient solution, pH 5.8 (Murashige and Skoog (1962) Physiologia Plantarum 15: 473-497). Compounds are dissolved in dimethylsulfoxid (DMSO) and added to the medium prior solidification (final DMSO concentration 0.1%). Multi well plates are incubated in a growth chamber at 22° C., 75% relative humidity and 110 μmol Phot*m^−2*s^−1 with 14:10 h light:dark photoperiod. Growth inhibition is evaluated seven to ten days after seeding in comparison to wild type plants. Tolerance factors are calculated based on IC50 values of growth inhibition of transformed versus non-transformed Arabidopsis plants.

[16] = system: transgenic Arabidopsis plants, construct AtCESA1_G1013R; assay: as above; conditions: SEQ ID NO 1, substitution G1013R, growth inhibition seven to ten days after seeding
Description: as §2, §3

[17] = system: transgenic Arabidopsis plants, construct AtCESA3_S1037F; assay: as above; conditions: SEQ ID NO 3, substitution S1037F, growth inhibition seven to ten days after seeding
Description: as §2, §3

[18] = system: transgenic Arabidopsis plants, construct AtCESA3_S1040L; assay: as above; conditions: SEQ ID NO 3, substitution S1040L, growth inhibition seven to ten days after seeding
Description: as §2, §3

[19] = system: transgenic Arabidopsis plants, construct AtCESA3_wt; assay: as above; conditions: SEQ ID NO 3, growth inhibition seven to ten days after seeding
Description: as §2, §3

## Cc1cccc(-n2nc(C(N)=O)nc2-c2ccccc2)c1 [1-(m-tolyl)-5-phenyl-1,2,4-triazole-3-carboxamide, reference compound]
[1]; 3.91 g ai/ha
  Phytotox value on a scale from 0-100 (100 is 100% damage): 0
[1]; 15.63 g ai/ha
  Phytotox value on a scale from 0-100 (100 is 100% damage): 63
[1]; 62.5 g ai/ha
  Phytotox value on a scale from 0-100 (100 is 100% damage): 100
[1]; 250 g ai/ha
  Phytotox value on a scale from 0-100 (100 is 100% damage): 100
[2]; 3.91 g ai/ha
  Phytotox value on a scale from 0-100 (100 is 100% damage): 0
[2]; 15.63 g ai/ha
  Phytotox value on a scale from 0-100 (100 is 100% damage): 18
[2]; 62.5 g ai/ha
  Phytotox value on a scale from 0-100 (100 is 100% damage): 30
[2]; 250 g ai/ha
  Phytotox value on a scale from 0-100 (100 is 100% damage): 45
[3]; 3.91 g ai/ha
  Phytotox value on a scale from 0-100 (100 is 100% damage): 5
[3]; 15.63 g ai/ha
  Phytotox value on a scale from 0-100 (100 is 100% damage): 15
[3]; 62.5 g ai/ha
  Phytotox value on a scale from 0-100 (100 is 100% damage): 20
[3]; 250 g ai/ha
  Phytotox value on a scale from 0-100 (100 is 100% damage): 15
[4]; 3.91 g ai/ha
  Phytotox value on a scale from 0-100 (100 is 100% damage): 0
[4]; 15.63 g ai/ha
  Phytotox value on a scale from 0-100 (100 is 100% damage): 20
[4]; 62.5 g ai/ha
  Phytotox value on a scale from 0-100 (100 is 100% damage): 13
[4]; 250 g ai/ha
  Phytotox value on a scale from 0-100 (100 is 100% damage): 35
[5]; 3.91 g ai/ha
  Phytotox value on a scale from 0-100 (100 is 100% damage): 0
[5]; 15.63 g ai/ha
  Phytotox value on a scale from 0-100 (100 is 100% damage): 30
[5]; 62.5 g ai/ha
  Phytotox value on a scale from 0-100 (100 is 100% damage): 23
[5]; 250 g ai/ha
  Phytotox value on a scale from 0-100 (100 is 100% damage): 68
[6]; 3.91 g ai/ha
  Phytotox value on a scale from 0-100 (100 is 100% damage): 38
[6]; 15.63 g ai/ha
  Phytotox value on a scale from 0-100 (100 is 100% damage): 30
[6]; 62.5 g ai/ha
  Phytotox value on a scale from 0-100 (100 is 100% damage): 0
[6]; 250 g ai/ha
  Phytotox value on a scale from 0-100 (100 is 100% damage): 25
[7]; 3.91 g ai/ha
  Phytotox value on a scale from 0-100 (100 is 100% damage): 0
[7]; 15.63 g ai/ha
  Phytotox value on a scale from 0-100 (100 is 100% damage): 8
[7]; 62.5 g ai/ha
  Phytotox value on a scale from 0-100 (100 is 100% damage): 5
[7]; 250 g ai/ha
  Phytotox value on a scale from 0-100 (100 is 100% damage): 30
[8]; 62.5 g ai/ha
  Phytotox value on a scale from 0-100 (100 is 100% damage): 78
[8]; 125 g ai/ha
  Phytotox value on a scale from 0-100 (100 is 100% damage): 83
[8]; 250 g ai/ha
  Phytotox value on a scale from 0-100 (100 is 100% damage): 95
[9]; 62.5 g ai/ha
  Phytotox value on a scale from 0-100 (100 is 100% damage): 23
[9]; 125 g ai/ha
  Phytotox value on a scale from 0-100 (100 is 100% damage): 33
[9]; 250 g ai/ha
  Phytotox value on a scale from 0-100 (100 is 100% damage): 45
[10]; 62.5 g ai/ha
  Phytotox value on a scale from 0-100 (100 is 100% damage): 23
[10]; 125 g ai/ha
  Phytotox value on a scale from 0-100 (100 is 100% damage): 33
[10]; 250 g ai/ha
  Phytotox value on a scale from 0-100 (100 is 100% damage): 40
[11]; 62.5 g ai/ha
  Phytotox value on a scale from 0-100 (100 is 100% damage): 15
[11]; 125 g ai/ha
  Phytotox value on a scale from 0-100 (100 is 100% damage): 15
[11]; 250 g ai/ha
  Phytotox value on a scale from 0-100 (100 is 100% damage): 48
[12]; 62.5 g ai/ha
  Phytotox value on a scale from 0-100 (100 is 100% damage): 30
[12]; 125 g ai/ha
  Phytotox value on a scale from 0-100 (100 is 100% damage): 50
[12]; 250 g ai/ha
  Phytotox value on a scale from 0-100 (100 is 100% damage): 68
[13]; 62.5 g ai/ha
  Phytotox value on a scale from 0-100 (100 is 100% damage): 0
[13]; 125 g ai/ha
  Phytotox value on a scale from 0-100 (100 is 100% damage): 23
[13]; 250 g ai/ha
  Phytotox value on a scale from 0-100 (100 is 100% damage): 55
[14]; 62.5 g ai/ha
  Phytotox value on a scale from 0-100 (100 is 100% damage): 28
[14]; 125 g ai/ha
  Phytotox value on a scale from 0-100 (100 is 100% damage): 23
[14]; 250 g ai/ha
  Phytotox value on a scale from 0-100 (100 is 100% damage): 53
[15]
  Relative tolerance rate (non-transgenic = 1.0): 3
[16]
  Relative tolerance rate (non-transgenic = 1.0): 33
[17]
  Relative tolerance rate (non-transgenic = 1.0): 1333
[18]
  Relative tolerance rate (non-transgenic = 1.0): 2
[19]
  Relative tolerance rate (non-transgenic = 1.0): 4
